Laboratory results as given in patent US9145435B2, “Urea compounds” (Eli Lilly and Company, priority 2013, dated 2015).

Key:
mouse SGLT1 = target: T1, mouse SGLT1 (Mus musculus, UniProt Q8C3K6); assay: Sodium-dependent 14C-AMG uptake assay in CHO-K1 cells expressing mouse SGLT1; format: cell-based; settings: n=6
T1 sequence (Q8C3K6 1-665): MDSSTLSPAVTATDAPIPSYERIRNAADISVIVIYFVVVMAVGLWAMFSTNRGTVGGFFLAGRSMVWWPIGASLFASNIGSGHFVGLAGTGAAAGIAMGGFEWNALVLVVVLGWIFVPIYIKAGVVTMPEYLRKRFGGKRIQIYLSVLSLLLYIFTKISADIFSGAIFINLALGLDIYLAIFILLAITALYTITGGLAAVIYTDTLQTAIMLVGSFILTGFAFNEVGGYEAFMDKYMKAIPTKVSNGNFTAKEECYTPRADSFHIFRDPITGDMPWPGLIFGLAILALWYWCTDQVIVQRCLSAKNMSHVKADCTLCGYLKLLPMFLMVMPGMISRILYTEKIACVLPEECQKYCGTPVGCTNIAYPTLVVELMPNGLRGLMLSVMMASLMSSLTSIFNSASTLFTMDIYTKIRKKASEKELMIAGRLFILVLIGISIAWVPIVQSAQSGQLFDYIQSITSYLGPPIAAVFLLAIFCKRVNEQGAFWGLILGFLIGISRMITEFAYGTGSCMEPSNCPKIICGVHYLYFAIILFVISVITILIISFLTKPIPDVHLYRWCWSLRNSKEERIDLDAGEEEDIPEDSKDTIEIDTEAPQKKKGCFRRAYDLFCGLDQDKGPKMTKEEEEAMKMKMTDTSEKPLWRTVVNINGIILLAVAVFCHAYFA
Source text: (§1) The cDNA encoding human SGLT1 (slc5a1, NM_000343) and mouse SGLT1 (slc5a1, NM_019810.4) are purchased from Openbiosystems. The cDNA is cloned into pcDNA3.1+ for mammalian expression and is stably transfected into Chinese hamster ovary (CHO)-K1 cells using standard mammalian transfection procedures. An SGLT-expressing sub-clone of each over-expressing cell line is selected based on resistance to neomycin (Geneticin, Invitrogen) and activity in the ^14C-a-methyl-D-glucopyranoside (^14C-AMG) uptake assay (see below). Stable SGLT-expressing cells are maintained using standard cell culture techniques.
(§2) The SGLT activity is measured as sodium-dependent ^14C-AMG uptake in the above cell lines described as follows. One hundred […] of culture medium containing 30,000 cells are seeded to each well of a 96-well BioCoat poly-D-lysine plate (Becton Dickson) and cultured at 37° C. overnight. The culture medium is aspirated and cells are washed twice with […] of Reaction Buffer (140 mM NaCl, 2 mM KCl, 1 mM CaCl2, MgCl2, and 14 mM N-2-hydroethylpiperrazine-N′-2-ethanesulfonic acid (Hepes), pH 7.5). The excess buffer is tapped out onto paper towels. Thirty-five […] of Reaction Buffer are added to each well. […] After mixing, the scintillation signal in the plate is counted in a MicroBeta (PerkinElmer). […]

human SGLT1 = target: T2, human SGLT1 (Homo sapiens, UniProt P13866); assay: Sodium-dependent 14C-AMG uptake assay in CHO-K1 cells expressing human SGLT1; format: cell-based; settings: n=9
T2 sequence (P13866 1-664): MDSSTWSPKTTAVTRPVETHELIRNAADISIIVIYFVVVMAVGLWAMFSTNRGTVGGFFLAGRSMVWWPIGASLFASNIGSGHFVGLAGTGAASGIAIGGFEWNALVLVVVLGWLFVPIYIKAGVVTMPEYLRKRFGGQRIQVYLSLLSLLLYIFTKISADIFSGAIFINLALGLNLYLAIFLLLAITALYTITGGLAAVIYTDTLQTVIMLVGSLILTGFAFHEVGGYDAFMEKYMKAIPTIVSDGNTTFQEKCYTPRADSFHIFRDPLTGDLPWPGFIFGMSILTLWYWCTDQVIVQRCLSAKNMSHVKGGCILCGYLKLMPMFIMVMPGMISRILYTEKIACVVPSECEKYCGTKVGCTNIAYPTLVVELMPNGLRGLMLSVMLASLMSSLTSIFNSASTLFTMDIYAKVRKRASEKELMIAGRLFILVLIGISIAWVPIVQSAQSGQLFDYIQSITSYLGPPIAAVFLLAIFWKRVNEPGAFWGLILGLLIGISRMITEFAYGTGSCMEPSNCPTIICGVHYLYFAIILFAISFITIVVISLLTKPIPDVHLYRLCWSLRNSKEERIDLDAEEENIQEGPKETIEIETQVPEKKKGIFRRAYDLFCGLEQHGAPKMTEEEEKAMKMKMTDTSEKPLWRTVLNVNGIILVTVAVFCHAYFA
Source text: as §1, §2

C57B1/6 mice = assay: Glucose lowering effects in oral glucose tolerance test (OGTT); format: in vivo, mouse; settings: for Glucose 20 Minute / Glucose 40 Minute / Glucose 60 Minute / Baseline Adjusted AUC (glucose) / Glucose Cmax / Glucose Tmax / Glucose 0 Minute: OGTT, 10 mg/kg oral, Mean ± SEM; for Glucose 20 Minute: 20 min after dextrose; for Glucose 40 Minute: 40 min after dextrose; for Glucose 60 Minute: 60 min after dextrose; for Glucose 0 Minute: baseline before 3 g/kg dextrose
Protocol: The test compound is formulated by adding a vehicle of 1% hydroxyethylcellulose, 0.25% Tween® 80 w/antifoam 0.05% to preweighed test compound to make a 1 mg/ml solution. The mixture is probe sonicated for approximately 1 minute. A stir bar is added, and the resulting suspension is stirred continuously throughout dosing.
One of two sets of single housed C57B1/6 mice are weighed and body weights used to determine study groups (n=5), within a working range of 26-30 g. After grouping, the mice are orally gavaged with 10 ml/kg test compound preparation or vehicle, thirty seconds apart. […] Both sets of mice are then fasted overnight by removing access to food, late afternoon before test day. The following morning, the remaining mice, are weighed and bled (via tail snip) for glucose. Study groups (n=5) are determined using fasted glucose values, within a working range of 80-100 mg/dl. After grouping, the mice are orally gavaged using the same protocol as the previous day.
At eight and eighteen hours after each respective compound treatment is started, a baseline blood sample is taken for measuring glucose (from the first animal). The animal is then immediately given an oral dose of 50% dextrose (Hospira®) at 3 g/kg. Blood samples are taken for glucose, exactly thirty seconds apart, by tail vein so that blood is collected in each animal at 20, 40 and 60 minutes after the dextrose dose.

Cc1cccc2c1c(Cc1ccc(/C=C/CCN3CCCC4(CCN(C(=O)CNC(=O)NCC(C)C)CC4)C3)cc1)cn2[C@@H]1O[C@H](CO)[C@@H](O)[C@H](O)[C@H]1O [Example 1, 1-isobutyl-3-[2-[4-[(E)-4-[4-[[4-methyl-1-[(2R,3R,4S,5S,6R)-3,4,5-trihydroxy-6-(hydroxymethyl)tetrahydropyran-2-yl]indol-3-yl]methyl]phenyl]but-3-enyl]-4,9-diazaspiro[5.5]undecan-9-yl]-2-oxo-ethyl]urea]
IC50 (mouse SGLT1): 13.6 ± 7.3 nM | IC50 (human SGLT1): 17.4 ± 14.6 nM | Glucose 20 Minute (C57B1/6 mice; 8 hrs post dose): 119.1 ± 11.4 mg/dL | Glucose 40 Minute (C57B1/6 mice; 8 hrs post dose): 127.7 ± 8.32 mg/dL | Glucose 60 Minute (C57B1/6 mice; 8 hrs post dose): 132.6 ± 8.85 mg/dL | Baseline Adjusted AUC (glucose) (C57B1/6 mice; 8 hrs post dose): 2752 ± 507 mg/dL | Glucose Cmax (C57B1/6 mice; 8 hrs post dose): 134.7 ± 8.31 mg/dL | Glucose Tmax (C57B1/6 mice; 8 hrs post dose): 48 ± 8 min | Glucose 0 Minute (C57B1/6 mice; 8 hrs post dose): 70.2 ± 5.47 mg/dL | Glucose 20 Minute (C57B1/6 mice; 18 hrs post dose): 116.1 ± 2.71 mg/dL | Glucose 40 Minute (C57B1/6 mice; 18 hrs post dose): 130.7 ± 4.47 mg/dL | Glucose 60 Minute (C57B1/6 mice; 18 hrs post dose): 124.1 ± 1.42 mg/dL | Baseline Adjusted AUC (glucose) (C57B1/6 mice; 18 hrs post dose): 1792 ± 254 mg/dL | Glucose Cmax (C57B1/6 mice; 18 hrs post dose): 132.7 ± 3.27 mg/dL | Glucose Tmax (C57B1/6 mice; 18 hrs post dose): 48 ± 4.9 min | Glucose 0 Minute (C57B1/6 mice; 18 hrs post dose): 87.7 ± 3.36 mg/dL | glucose excursion after oral bolus of 50% dextrose (C57B1/6 mice; normal glycemic C57B1/6 mouse, eight or eighteen hours after administration): decrease
